# Reference: ChEMBL document CHEMBL6078646, “Target Ligand Separation and Identification of Isoforsythiaside as a Histone Lysine-Specific Demethylase 1 Covalent Inhibitor Against Breast Cancer Metastasis” (J Med Chem, 2024)
# The source made the active and inactive calls. The rule behind the calls is not given here.
# Legend:
# [1] = test system: MDA-MB-231; experiment: Upregulation of RBMS3 promoter level in human MDA-MB-231 cells by chromatin immunoprecipitation assay; type: functional, cell-based
# [2] = target: Lysine-specific histone demethylase 1A (Homo sapiens, UniProt O60341); experiment: Binding affinity to LSD1 (unknown origin) assessed as thermal stability preincubated for 30 mins followed by incubation under 37 to 52 degreeC for 5 mins by CETSA; settings: time 35.0 min
# [3] = Toxicity in female Balb/c mouse assessed as effect on lymphocyte level at 50 mg/kg, ip administered every other day for 7 times; type: organism-based; settings: in vivo
# [4] = Toxicity in female Balb/c nude mouse xenografted with human MDA-MB-231 cells expressing luciferase assessed as abnormalities kidney at 12 to 50 mg/kg, ip administered every 3 days and measured after 30 days by H and E staining based analysis; type: organism-based; settings: in vivo, 720 h, dose 12-50 mg/kg, time 30 day
# [5] = test system: MDA-MB-231; experiment: Inhibition of Twist1 production in human MDA-MB-231 cells by Western blotting analysis; type: functional, cell-based
# [6] = Toxicity in female Balb/c mouse assessed as effect on hemoglobin level at 50 mg/kg, ip administered every other day for 7 times; type: organism-based; settings: in vivo
# [7] = test system: MCF7; experiment: Cytotoxicity against human MCF7 cells assessed as cell viability at 0 to 100 uM incubated for 24 hrs by MTT assay; type: functional; settings: dose 0-100 µM
# [8] = Toxicity in female Balb/c nude mouse xenografted with human MDA-MB-231 cells expressing luciferase assessed as appearance of heart lesions at 12 to 50 mg/kg, ip administered every 3 days and measured after 30 days by H and E staining based analysis; type: organism-based; settings: in vivo, 720 h, dose 12-50 mg/kg, time 30 day
structure (smiles),measurement,setting,value
C[C@@H]1O[C@H](OC[C@H]2O[C@@H](OCCc3ccc(O)c(O)c3)[C@H](O)[C@@H](OC(=O)/C=C/c3ccc(O)c(O)c3)[C@@H]2O)[C@H](O)[C@H](O)[C@H]1O,Activity,[1],Active
same,Activity,[2],Active
same,Activity,[3],Non-toxic
same,Activity,[4],Non-toxic
same,inhibition,[5],Dose-dependent-effect
same,Activity,[6],Non-toxic
same,Activity,[7],>90%
same,Activity,[8],Non-toxic
